We go through 19 substances from patent US10239925B2, “Peptides and combination of peptides for use in immunotherapy against ovarian cancer and other cancers” (IMMATICS BIOTECHNOLOGIES GMBH, priority 2015, dated 2019).

In one assay the target is HLA-A*02:01 (Homo sapiens, UniProt P04439, D140Y/D185E/D98H/E176V/E277Q/G131W/G231S/I119V/I121R/I166T/I218V/L300P/L318F/N151K/N90K/P208A/P217A/Q86G/Q94H/R138H/R169H/T345S). The experiment in a line: MHC binding assay (UV-ligand exchange, anti-β2m ELISA, peptide exchange yield). The note with it: binding to HLA-A*02:01. In outline:
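Peptide-MHC complexes formed by UV-ligand exchange, cleaving a UV-sensitive placeholder peptide in favour of the test peptide. Exchange yield measured by ELISA: monomers diluted 100-fold onto streptavidin-coated plates, 1 h 37 °C, detected with 2 ug/ml HRP anti-β2m and TMB, absorbance at 450 nm.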
(An ELISA detects its analyte on a solid surface through an enzyme-linked reagent.)

The test system of another assay is CD8+ T cells. Put plainly: In vitro immunogenicity: priming of CD8+ T cells with aAPCs loaded with peptide/MHC and anti-CD28, multimer readout. Type of assay: cell-based, human. The settings on record: for Wells positive [%]: HLA-A*02 restricted peptides, percentage of positive wells (among evaluable). The procedure:
In an aspect, the peptides are pre-screened for immunogenicity before being included in the warehouse. By way of example, and not limitation, the immunogenicity of the peptides included in the warehouse is determined by a method comprising in vitro T-cell priming through repeated stimulations of CD8+ T cells from healthy donors with artificial antigen presenting cells loaded with peptide/MHC complexes and anti-CD28 antibody.
FIGS. 3A to 3F show exemplary immunogenicity data: flow cytometry results after peptide-specific multimer staining. CD8+ T cells were primed using artificial APCs coated with anti-CD28 mAb and HLA-A*02 in complex with SeqID No 662 (FIG. 3A, left panel), SeqID No 663 (FIG. 3B, left panel), SeqID No 11 peptide (FIG. 3C, left panel), SeqID No 198 peptide (FIG. 3D, left panel), SeqID No 587 peptide (FIG. 3E, left panel) and SeqID No 427 peptide (FIG. 3F, left panel), respectively. After three cycles of stimulation, the detection of peptide-reactive cells was performed by 2D multimer staining with A*02/SeqID No 662 (FIG. 3A), A*02/SeqID No 663 (FIG. 3B), A*02/SeqID No 11 (FIG. 3C), A*02/SeqID No 198 (FIG. 3D), A*02/SeqID No 587 (FIG. 3E) or A*02/SeqID No 427 (FIG. 3F). Right panels (FIGS. 3A, 3B, 3C, 3D, 3E, and 3F) show control staining of cells stimulated with irrelevant A*02/peptide complexes. Viable singlet cells were gated for CD8+ lymphocytes. Boolean gates helped excluding false-positive events detected with multimers specific for different peptides. Frequencies of specific multimer+ cells among CD8+ lymphocytes are indicated.
In Vitro Immunogenicity for MHC Class I Presented Peptides
In order to obtain information regarding the immunogenicity of the TUMAPs of the present invention, the inventors performed investigations using an in vitro T-cell priming assay based on repeated stimulations of CD8+ T cells with artificial antigen presenting cells (aAPCs) loaded with peptide/MHC complexes and anti-CD28 antibody.
In Vitro Priming of CD8+ T Cells
In order to perform in vitro stimulations by artificial antigen presenting cells loaded with peptide-MHC complex (pMHC) and anti-CD28 antibody, the inventors first isolated CD8+ T cells from fresh HLA-A*02 leukapheresis products via positive selection using CD8 microbeads (Miltenyi Biotec, Bergisch-Gladbach, Germany) of healthy donors obtained from the University clinics Mannheim, Germany, after informed consent.
PBMCs and isolated CD8+ lymphocytes were incubated in T-cell medium (TCM) until use consisting of RPMI-Glutamax (Invitrogen, Karlsruhe, Germany) supplemented with 10% heat inactivated human AB serum (PAN-Biotech, Aidenbach, Germany), 100 U/ml Penicillin/100 μg/ml Streptomycin (Cambrex, Cologne, Germany), 1 mM sodium pyruvate (CC Pro, Oberdorla, Germany), 20 μg/ml Gentamycin (Cambrex). 2.5 ng/ml IL-7 (PromoCell, Heidelberg, Germany) and 10 U/ml IL-2 (Novartis Pharma, Nümberg, Germany) were also added to the TCM at this step.
Generation of pMHC/anti-CD28 coated beads, T-cell stimulations and readout was performed in a highly defined in vitro system using four different pMHC molecules per stimulation condition and 8 different pMHC molecules per readout condition.
The purified co-stimulatory mouse IgG2a anti human CD28 Ab 9.3 (Jung et al., 1987) was chemically biotinylated using Sulfo-N-hydroxysuccinimidobiotin as recommended by the manufacturer (Perbio, Bonn, Germany). Beads used were 5.6 μm diameter streptavidin coated polystyrene particles (Bangs Laboratories, Illinois, USA).
pMHC used for positive and negative control stimulations were A*0201/MLA-001 (peptide […] (SEQ ID NO. 664) from modified Melan-A/MART-1) and A*0201/DDX5-001 ([…] from DDX5, SEQ ID NO. 665), respectively.
800.000 beads/200 μl were coated in 96-well plates in the presence of 4×12.5 ng different biotin-pMHC, washed and 600 ng biotin anti-CD28 were added subsequently in a volume of 200 μl. […]

With “198 (KTINKVPTV; listed as Homo sapiens) [compound 198]”, the “Peptide exchange (MHC class I binding score, peptide exchange yield)” value (“Peptide exchange” for short) in the assay with HLA-A*02:01 is reported as ““+++” (>50 = +++)”. Besides, the “Wells positive [%]” value in the assay on CD8+ T cells is reported as ““++” (20% - 49% = ++)”.
Taken in the same sequence, the figures for “199 (ALQDVPLSSV; listed as Homo sapiens) [compound 199]” were ““+++” (>50 = +++)” and ““+” (<20% = +)”.
The matching figures for “215 (QLINHLHAV; listed as Homo sapiens) [compound 215]”: ““+++” (>50 = +++)” and ““++” (20% - 49% = ++)”.
Regarding “242 (AIAYILQGV; listed as Homo sapiens) [compound 242]”, the “Peptide exchange” value with HLA-A*02:01 is on record as ““++” (>20% = ++)”. The “Wells positive [%]” value with CD8+ T cells is ““+++” (50% - 69% = +++)”.
Taken in the same sequence, the figures for “247 (VLLPNDLLEKV; listed as Homo sapiens) [compound 247]” were ““+++” (>50 = +++)” and ““+” (<20% = +)”.
For the substance “283 (ALYIGDGYVIHLA; listed as Homo sapiens) [compound 283]”, the “Peptide exchange” value with HLA-A*02:01 was ““+++” (>50 = +++)”. In addition, the donors result with CD8+ T cells (percentage of positive donors) is “+++ (50% - 69% = +++)”. The wells entry in the assay on CD8+ T cells (percentage of positive wells) is recorded as “+ (<20% = +)”.
Turning to “319 (SLEPQIQPV; listed as Homo sapiens) [compound 319]”, the “Peptide exchange” value in the assay with HLA-A*02:01 is ““++” (>20% = ++)”. For the same substance, the “Wells positive [%]” value in the assay with CD8+ T cells is listed as ““+” (<20% = +)”.
The matching figures for “384 (ILFANPNIFV; listed as Homo sapiens) [compound 384]”: ““+++” (>50 = +++)” and ““+” (<20% = +)”.
The matching figures for “395 (ALALGGIAVV; listed as Homo sapiens) [compound 395]”: ““++++” (>75% = ++++)” and ““+++” (50% - 69% = +++)”.
The matching figures for “443 (GLWEIENNPTV; listed as Homo sapiens) [compound 443]”: ““+++” (>50 = +++)” and ““+” (<20% = +)”.
On to “446 (QLIPALAKV; listed as Homo sapiens) [compound 446]”, for which, in the assay with HLA-A*02:01, the “Peptide exchange” value is ““+++” (>50 = +++)”. Moreover, the “Wells positive [%]” value with CD8+ T cells is recorded as ““++” (20% - 49% = ++)”.
The matching figures for “454 (KLPPPPPQA; listed as Homo sapiens) [compound 454]”: ““+++” (>50 = +++)” and ““++” (20% - 49% = ++)”.
With “460 (AMLEKNYKL; listed as Homo sapiens) [compound 460]”, the “Peptide exchange” value with HLA-A*02:01 is given as ““++++” (>75% = ++++)”. In the assay on CD8+ T cells, the “Wells positive [%]” value is recorded as ““+” (<20% = +)”.
Turning to “463 (SLVESHLSDQLTL; listed as Homo sapiens) [compound 463]”, the “Peptide exchange” value with HLA-A*02:01 is listed as ““+++” (>50 = +++)”. Further, the “Wells positive [%]” value in the assay on CD8+ T cells was ““++” (20% - 49% = ++)”.
Taken in the same sequence, the figures for “489 (KMWEELPEVV; listed as Homo sapiens) [compound 489]” were ““+++” (>50 = +++)” and ““+” (<20% = +)”.
For “499 (KIFDIDEAEEGV; listed as Homo sapiens) [compound 499]”, the “Peptide exchange” value in the assay with HLA-A*02:01 is reported as ““++” (>20% = ++)”. Further, the “Wells positive [%]” value in the assay on CD8+ T cells is given as ““+” (<20% = +)”.
On to “511 (FLDPYCSASV; listed as Homo sapiens) [compound 511]”, for which the “Peptide exchange” value with HLA-A*02:01 is on record as ““++” (>20% = ++)”. Further, the “Wells positive [%]” value with CD8+ T cells is ““+” (<20% = +)”.
The matching figures for “518 (KLNAEVACV; listed as Homo sapiens) [compound 518]”: ““+++” (>50 = +++)” and ““++” (20% - 49% = ++)”.
The matching figures for “603 (FLIEPEHVNTV; listed as Homo sapiens) [compound 603]”: ““++” (>20% = ++)” and ““+” (<20% = +)”.
